Test results as given in US20230025510A1, “BIARYL ETHER-TYPE QUINAZOLINE DERIVATIVES” (DAIICHI SANKYO COMPANY, LIMITED, priority 2018, published 2023).

Experiments:
Type in all cases: cell-based
[1] = tested on: Ba/F3-EGFR WT cells; assay: Cell proliferation suppression test (CellTiter-Glo, GI50), Ba/F3-EGFR WT; settings: Mus musculus, 72 h, 100 ng/mL EGF, 3 days, N=4
Outline: (§1)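 Ba/F3 lines in RPMI 1640/10% FBS without puromycin; IL-3 5 ng/mL added for Mock, EGF 100 ng/mL for EGFR WT. Cells treated 3 days at 37 °C, 5% CO2; ATP measured by CellTiter-Glo 2.0 on day 0 and day 3 (N=4). GI50 is the concentration inhibiting 50% of day 0–3 proliferation.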

[2] = tested on: Ba/F3-EGFR ins. SVD cells; assay: Cell proliferation suppression test (CellTiter-Glo, GI50), Ba/F3-EGFR ins. SVD; settings: Mus musculus, 72 h, 3 days, N=4
Outline: as §1

[3] = tested on: Ba/F3-EGFR ins. ASV cells; assay: Cell proliferation suppression test (CellTiter-Glo, GI50), Ba/F3-EGFR ins. ASV; settings: Mus musculus, 72 h, 3 days, N=4
Outline: as §1

[4] = tested on: Ba/F3-Mock cells; assay: Cell proliferation suppression test (CellTiter-Glo, GI50), Ba/F3-Mock; settings: Mus musculus, BaF3, 72 h, 5 ng/mL IL-3, 3 days, N=4
Outline: as §1

Row | GI50 [1] [nM] | GI50 [2] [nM] | GI50 [3] [nM] | SMILES | GI50 [4] [nM]
1 | 412 | 11.6 | 10 | COc1cc2ncnc(Nc3ccc(Oc4nn(CC(=O)NC(C)(C)C)cc4F)cc3Cl)c2cc1NC(=O)/C=C/CN(C)C [Example 45, (2E)-N-{4-[4-({1-[2-(tert-Butylamino)-2-oxoethyl]-4-fluoro-1H-pyrazol-3-yl}oxy)-2-chloroanilino]-7-methoxyquinazolin-6-yl}-4-(dimethylamino)but-2-enamide] | 2840
2 | 261 | 4.7 | 6.5 | COc1cc2ncnc(Nc3ccc(Oc4nn(CC(=O)NC(C)(C)C)cc4F)cc3F)c2cc1NC(=O)/C=C/CN(C)C [Example 46, (2E)-N-{4-[4-({1-[2-(tert-Butylamino)-2-oxoethyl]-4-fluoro-1H-pyrazol-3-yl}oxy)-2-fluoroanilino]-7-methoxyquinazolin-6-yl}-4-(dimethylamino)but-2-enamide] | 3090
3 | 145 | 73.1 | 16.4 | COc1cc2ncnc(Nc3ccc(Oc4nc(C(=O)NC(C)(C)C)cs4)cc3F)c2cc1NC(=O)/C=C/CN(C)C [Example 47, N-tert-Butyl-2-{4-[(6-{[(2E)-4-(dimethylamino)but-2-enoyl]amino}-7-methoxyquinazolin-4-yl)amino]-3-fluorophenoxy}-1,3-thiazole-4-carboxamide] | 816
4 | 638 | 4.9 | 8.1 | COc1cc2ncnc(Nc3ccc(Oc4nn(CC(=O)NC(C)(C)CF)cc4F)cc3Cl)c2cc1NC(=O)/C=C/CN(C)C [Example 48, (2E)-N-(4-{2-Chloro-4-[(4-fluoro-1-{2-[(1-fluoro-2-methylpropan-2-yl)amino]-2-oxoethyl}-1H-pyrazol-3-yl)oxy]anilino}-7-methoxyquinazolin-6-yl)-4-(dimethylamino) but-2-enamide] | 3170
5 | 732 | 21.1 | 20.7 | COc1cc2ncnc(Nc3ccc(Oc4cccc(CC(=O)NC(C)(C)C)c4)cc3F)c2cc1NC(=O)/C=C/CN1CCOCC1 [Example 49, (2E)-N-[4-(4-{3-[2-(tert-Butylamino)-2-oxoethyl]phenoxy}-2-fluoroanilino)-7-methoxyquinazolin-6-yl]-4-(morpholin-4-yl)but-2-enamide] | > 10000
6 | 240 | 62.2 | 10.9 | COc1cc2ncnc(Nc3ccc(Oc4cccc(-c5nnc(C)o5)c4)cc3F)c2cc1NC(=O)/C=C/CN1CCCC1 [Example 50, (2E)-N-(4-{2-Fluoro-4-[3-(5-methyl-1,3,4-oxadiazol-2-yl)phenoxy]anilino}-7-methoxyquinazolin-6-yl)-4-(pyrrolidin-1-yl)but-2-enamide] | 750
7 | 104 | 20.5 | 11.8 | CCOc1cc2ncnc(Nc3ccc(Oc4cccc(-c5nnc(C6CC6)o5)c4)cc3F)c2cc1NC(=O)/C=C/CN(C)C [Example 51, (2E)-N-(4-{4-[3-(5-Cyclopropyl-1,3,4-oxadiazol-2-yl)phenoxy]-2-fluoroanilino}-7-ethoxyquinazolin-6-yl)-4-(dimethylamino)but-2-enamide] | 806
8 | 245 | 19.8 | 11.9 | CCOc1cc2ncnc(Nc3ccc(Oc4cccc(-c5nnc(C)o5)c4)cc3F)c2cc1NC(=O)/C=C/CN[C@H]1CCOC1 [Example 52, (2E)-N-(7-Ethoxy-4-{2-fluoro-4-[3-(5-methyl-1,3,4-oxadiazol-2-yl)phenoxy]anilino}quinazolin-6-yl)-4-[(3S)-tetrahydrofuran-3-ylamino]but-2-enamide] | 2840
9 | 229 | 16.7 | 11 | CCOc1cc2ncnc(Nc3ccc(Oc4cccc(-c5nnc(C)o5)c4)cc3F)c2cc1NC(=O)/C=C/CN[C@@H]1CCOC1 [Example 53, (2E)-N-(7-Ethoxy-4-{2-fluoro-4-[3-(5-methyl-1,3,4-oxadiazol-2-yl)phenoxy]anilino}quinazolin-6-yl)-4-[(3R)-tetrahydrofuran-3-ylamino]but-2-enamide] | 2950
10 | 2890 | 50.6 | 33.4 | COc1cc2ncnc(Nc3ccc(Oc4nn(CC(=O)NC(C)(C)C)cc4F)cc3Cl)c2cc1NC(=O)/C=C/CN1CCOCC1 [Example 54, (2E)-N-{4-[4-({1-[2-(tert-Butylamino)-2-oxoethyl]-4-fluoro-1H-pyrazol-3-yl}oxy)-2-chloroanilino]-7-methoxyquinazolin-6-yl}-4-(morpholin-4-yl)but-2-enamide] | > 10000
11 | 635 | 4.6 | 8.5 | COc1cc2ncnc(Nc3ccc(Oc4nn(CC(=O)NC(C)(C)C)cc4F)cc3Cl)c2cc1NC(=O)/C=C/CN1CC[C@@H](F)C1 [Example 56, (2E)-N-{4-[4-({1-[2-(tert-Butylamino)-2-oxoethyl]-4-fluoro-1H-pyrazol-3-yl}oxy)-2-chloroanilino]-7-methoxyquinazolin-6-yl}-4-[(3R)-3-fluoropyrrolidin-1-yl]but-2-enamide] | 4680
12 | 369 | 4.1 | 8.5 | COc1cc2ncnc(Nc3ccc(Oc4nn(CC(=O)NC(C)(C)C)cc4F)cc3Cl)c2cc1NC(=O)/C=C/CN1CC[C@H](F)C1 [Example 57, (2E)-N-{4-[4-({1-[2-(tert-Butylamino)-2-oxoethyl]-4-fluoro-1H-pyrazol-3-yl}oxy)-2-chloroanilino]-7-methoxyquinazolin-6-yl}-4-[(3S)-3-fluoropyrrolidin-1-yl]but-2-enamide] | 5090
13 | 468 | 7.4 | 11.9 | COc1cc2ncnc(Nc3ccc(Oc4nn(CC(=O)NC(C)(C)C)cc4F)cc3F)c2cc1NC(=O)/C=C/CN1CC(F)C1 [Example 59, (2E)-N-{4-[4-({1-[2-(tert-Butylamino)-2-oxoethyl]-4-fluoro-1H-pyrazol-3-yl}oxy)-2-fluoroanilino]-7-methoxyquinazolin-6-yl}-4-(3-fluoroazetidin-1-yl)but-2-enamide] | > 10000
14 | 497 | 10.7 | 11.9 | COc1cc2ncnc(Nc3ccc(Oc4nn(CC(=O)NC(C)(C)C)cc4F)cc3F)c2cc1NC(=O)/C=C/CN1CC(OC)C1 [Example 60, (2E)-N-{4-[4-({1-[2-(tert-Butylamino)-2-oxoethyl]-4-fluoro-1H-pyrazol-3-yl}oxy)-2-fluoroanilino]-7-methoxyquinazolin-6-yl}-4-(3-methoxyazetidin-1-yl)but-2-enamide] | 6030
15 | 731 | 88.1 | 25.6 | COc1cc2ncnc(Nc3ccc(Oc4nc(CC(=O)NC(C)(C)C)cs4)cc3F)c2cc1NC(=O)/C=C/CN1CC[C@@H](OC)C1 [Example 61, (2E)-N-{4-[4-({4-[2-(tert-Butylamino)-2-oxoethyl]-1,3-thiazol-2-yl}oxy)-2-fluoroanilino]-7-methoxyquinazolin-6-yl}-4-[(3R)-3-methoxypyrrolidin-1-yl]but-2-enamide] | 3120
